Columns and labels:
Assay in all cases: microbe, parasite or virus in culture
Type in all cases: cell-based
[1] = system: HCV 1a RLuc cells (dicistronic genotype 1a H77 replicon, RLuc reporter); details: Hepatitis C virus, genotype 1a H77 replicon, RLuc reporter; read-out: 1a
Summary of the method: (§1)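 Renilla luciferase HCV replicon cells: dicistronic 1b Con1, 1a H77 or 2a JFH-1 replicons, or a JFH-1 chimera carrying J6 NS5A (M31 present). Compound in DMSO serial dilutions, 72 h incubation, then lysis and luciferase read. EC50 by non-linear regression.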

[2] = system: HCV 1b RLuc cells (dicistronic genotype 1b Con1 replicon, RLuc reporter); details: Hepatitis C virus, read-out: 1b (nM)
Summary of the method: as §1

[3] = system: HCV 2a JFH-1 Rluc cells (dicistronic genotype 2a JFH-1 replicon, RLuc reporter); details: Hepatitis C virus, genotype 2a JFH-1 replicon, RLuc reporter; read-out: 2a JFH
Summary of the method: as §1

[4] = system: HCV 3a RLuc cells (NS5A chimeric genotype 1b Con1 replicon with consensus genotype 3a NS5A gene); details: Hepatitis C virus, read-out: 3a, genotype 3a NS5A chimeric 1b Con1 replicon
Summary of the method: (§2)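 Replicon cells stably carrying the listed RLuc-encoding dicistronic replicons were seeded and treated with DMSO serial dilutions of compound (10 mM stocks) diluted into culture medium. After 72 h, cells were lysed and Renilla luciferase activity measured. EC50 was derived by non-linear regression.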

[5] = system: HCV 4a Rluc cells (NS5A chimeric genotype 1b Con1 replicon with genotype 4a NS5A gene); details: Hepatitis C virus, read-out: 4a
Summary of the method: as §2

| SMILES | EC50 [1] [nM] | EC50 [2] [nM] | EC50 [3] [nM] | EC50 [4] [nM] | EC50 [5] [nM] |
| --- | --- | --- | --- | --- | --- |
| COC(=O)N[C@H](C(=O)N1CCC[C@H]1c1nc2c([nH]1)-c1ccc(-c3ccc4cc(-c5cnc([C@@H]6CCCN6C(=O)[C@H](NC(=O)CN6CCOCC6)c6ccccc6)[nH]5)ccc4c3)cc1CC2)C(C)C [Example 245] | 0.001 to 0.999 | 0.017 | 0.001 to 0.999 | 0.001 to 0.99 | 0.001 to 0.99 |
| COC(=O)N[C@H](C(=O)N1CCC[C@H]1c1nc2c([nH]1)-c1ccc(-c3ccc4cc(-c5cnc([C@@H]6CCCN6C(=O)[C@H](NC(=O)C6CCOCC6)c6ccccc6)[nH]5)ccc4c3)cc1CC2)C(C)C [Example 246] | 0.001 to 0.999 | 0.045 | 0.001 to 0.999 | 0.001 to 0.99 | 0.001 to 0.99 |
| COC(=O)N[C@H](C(=O)N1CCC[C@H]1c1ncc(-c2ccc3cc(-c4ccc(-c5cnc([C@@H]6CCCN6C(=O)OC(C)(C)C)[nH]5)cc4)ccc3c2)[nH]1)C(C)C [Example 247] | 1 to 44 | 0.758 | > 44 | > 5 | 0.001 to 0.99 |
| COC(=O)NC(C(=O)N[C@H](c1ncc(-c2ccc3c(c2)C(F)(F)c2cc(-c4ccc5nc([C@@H]6CCCN6C(=O)[C@@H](NC(=O)OC)[C@@H](C)OC)[nH]c5c4)ccc2-3)[nH]1)C(C)C)C(C)C (stereo partly shown) [Example 248] | 1 to 44 | 0.024 | 1 to 44 | > 5 | 0.001 to 0.99 |
| COC(=O)N[C@H](C(=O)N1CCC[C@H]1c1ncc(-c2ccc3c(c2)C(=C(C)C)c2cc(-c4cnc([C@@H]5CCCN5C(=O)[C@@H](NC(=O)OC)C(C)C)[nH]4)ccc2-3)[nH]1)C(C)C [Example 249] | 1 to 44 | 0.014 | 1 to 44 | > 5 | 0.001 to 0.99 |
| COC(=O)N[C@H](C(=O)N1CCC[C@H]1c1ncc(-c2ccc3c(c2)sc2cc(-c4cnc([C@@H]5CCCN5C(=O)[C@H](NC(=O)OC)c5ccccc5)[nH]4)ccc23)[nH]1)C(C)C [Example 250] | 0.001 to 0.999 | 0.004 | 0.001 to 0.999 | 0.001 to 0.99 | 0.001 to 0.99 |
| COC(=O)N[C@H](C(=O)N1CCC[C@H]1c1nc2ccc(-c3ccc4c(c3)sc3cc(-c5cnc([C@@H]6CCCN6C(=O)[C@H](NC(=O)OC)c6ccccc6)[nH]5)ccc34)cc2[nH]1)[C@@H](C)OC [Example 251] | 0.001 to 0.999 | 0.01 | 0.001 to 0.999 | 0.001 to 0.99 | 0.001 to 0.99 |
| COC(=O)N[C@H](C(=O)N1CCC[C@H]1c1ncc(-c2ccc(-c3cc4ccc(-c5c[nH]c([C@@H]6CCCN6C(=O)[C@H](NC(=O)OC)c6ccccc6)n5)cc4s3)cc2)[nH]1)C(C)C [Example 252] | 0.001 to 0.999 | 0.004 | 0.001 to 0.999 | 0.001 to 0.99 | 0.001 to 0.99 |
| COC(=O)N[C@H](C(=O)N1CCC[C@H]1c1nc(-c2ccc3cc(-c4ccc(-c5cnc([C@@H]6CCCN6C(=O)[C@H](NC(=O)OC)c6ccccc6)[nH]5)cc4)sc3c2)c[nH]1)C(C)C [Example 253] | 0.001 to 0.999 | 0.005 | 0.001 to 0.999 | 0.001 to 0.99 | 0.001 to 0.99 |
| COC(=O)N[C@H](C(=O)N1CCC[C@H]1c1ncc(-c2ccc3cc(-c4ccc(-c5cnc([C@@H]6CC(O)CN6C(=O)[C@H](NC(=O)OC)c6ccccc6)[nH]5)cc4)ccc3c2)[nH]1)C(C)C (stereo partly shown) [Example 256] | 0.001 to 0.999 | 0.015 | 0.001 to 0.999 | 0.001 to 0.99 | 0.001 to 0.99 |
| COC(=O)N[C@H](C(=O)N1CCC[C@H]1c1nc(-c2ccc3cc(-c4ccc5c(ccc6nc([C@@H]7CCCN7C(=O)[C@H](NC(=O)OC)c7ccccc7)[nH]c65)c4)sc3c2)c[nH]1)[C@H](C)OC [Example 257] | 0.001 to 0.999 | 0.013 | 0.001 to 0.999 | 0.001 to 0.99 | 0.001 to 0.99 |
| COC(=O)N[C@H](C(=O)N1CCC[C@H]1c1ncc(-c2ccc3c(c2)C(F)(F)c2cc(-c4ccc5nc([C@@H]6CCCN6C(=O)[C@H](NC(=O)OC)c6ccccc6)[nH]c5c4)ccc2-3)[nH]1)C(C)C [Example 258] | 0.001 to 0.999 | 0.005 | 0.001 to 0.999 | 0.001 to 0.99 | 0.001 to 0.99 |
| COC(=O)N[C@H](C(=O)N1CCC[C@H]1c1ncc(-c2ccc3c(c2)C(F)(F)c2cc(-c4ccc5nc([C@@H]6CCCN6C(=O)[C@H](NC(=O)OC)c6ccccc6)[nH]c5c4)ccc2-3)[nH]1)C1CCOCC1 [Example 259] | 0.001 to 0.999 | 0.014 | 0.001 to 0.999 | 0.001 to 0.99 | 0.001 to 0.99 |
| COC(=O)N[C@H](C(=O)N1CCC[C@H]1c1ncc(-c2ccc3cc(-c4ccc(-c5cnc([C@@H]6CCCN6C(=O)[C@H](NC(=O)C6CCCO6)c6ccccc6)[nH]5)cc4)ccc3c2)[nH]1)C(C)C (stereo partly shown) [Example 261] | 0.001 to 0.999 | 0.011 | 0.001 to 0.999 | 0.001 to 0.99 | 0.001 to 0.99 |
| COC(=O)NC(C(=O)N1CC2(CC2)C[C@H]1c1ncc(-c2ccc(-c3ccc4cc(-c5cnc([C@@H]6CCCN6C(=O)[C@H](NC(=O)OC)c6ccccc6)[nH]5)ccc4c3)cc2)[nH]1)[C@@H](C)OC (stereo partly shown) [Example 262] | 0.001 to 0.999 | 0.008 | 0.001 to 0.999 | 0.001 to 0.99 | 0.001 to 0.99 |
| COC(=O)N[C@H](C(=O)N1CC(F)(F)C[C@H]1c1ncc(-c2ccc(-c3ccc4cc(-c5cnc([C@@H]6CCCN6C(=O)[C@H](NC(=O)OC)c6ccccc6)[nH]5)ccc4c3)cc2)[nH]1)[C@@H](C)OC [Example 263] | 0.001 to 0.999 | 0.006 | 0.001 to 0.999 | 0.001 to 0.99 | 0.001 to 0.99 |
| COC(=O)NC(C(=O)N1CCC[C@H]1c1ncc(-c2ccc3c(c2)C(F)(F)c2cc(-c4ccc5nc([C@@H]6CCCN6C(=O)[C@@H](NC(=O)OC)[C@@H](C)OC)[nH]c5c4)ccc2-3)[nH]1)C(C)C (stereo partly shown) [Example 264] | 0.001 to 0.999 | 0.006 | 1 to 44 | 1 to 4.99 | 0.001 to 0.99 |
| COC(=O)N[C@H](C(=O)N1CCC[C@H]1c1ncc(-c2ccc3cc(-c4ccc(-c5cnc([C@@H]6CCCN6C(=O)[C@@H](NC(=O)OC)[C@@H](C)OC(C)(C)C)[nH]5)cc4)ccc3c2)[nH]1)C(C)C [Example 265] | 1 to 44 | 0.042 | 1 to 44 | 1 to 4.99 | 0.001 to 0.99 |
| COC(=O)N[C@H](C(=O)N1CCC[C@H]1c1ncc(-c2ccc(-c3ccc(-c4cnc([C@@H]5Cc6ccccc6N5C(=O)[C@@H](NC(=O)OC)C(C)C)[nH]4)cc3)cc2)[nH]1)C(C)C [Example 266] | 0.001 to 0.999 | 0.009 | 1 to 44 | 1 to 4.99 | 0.001 to 0.99 |
| COC(=O)N[C@H](C(=O)N1c2ccccc2C[C@H]1c1ncc(-c2ccc(-c3ccc(-c4cnc([C@@H]5Cc6ccccc6N5C(=O)[C@@H](NC(=O)OC)C(C)C)[nH]4)cc3)cc2)[nH]1)C(C)C [Example 267] | 1 to 44 | 0.045 | > 44 | > 5 | 0.001 to 0.99 |
| COC(=O)N[C@H](C(=O)N1CCC[C@H]1c1nc2ccc3cc(C#Cc4ccc(-c5cnc([C@@H]6CCCN6C(=O)[C@H](NC(=O)OC)c6ccccc6)[nH]5)cc4)ccc3c2[nH]1)[C@@H](C)OC [Example 268] | 0.001 to 0.999 | 0.007 | 0.001 to 0.999 | 0.001 to 0.99 | 0.001 to 0.99 |
| COC(=O)N[C@@H](C(=O)N1CCC[C@H]1c1ncc(-c2ccc3cc(-c4ccc5c(c4)CCc4nc([C@@H]6CCCN6C(=O)[C@@H](NC(=O)OC(C)(C)C)C6CCOCC6)[nH]c4-5)ccc3c2)[nH]1)c1ccccc1 [Example 269] | > 44 | 0.076 | 1 to 44 | > 5 | 0.001 to 0.99 |
| COC(=O)N[C@H](C(=O)N1CCC[C@H]1c1nc2c([nH]1)-c1ccc(-c3ccc4cc(-c5cnc([C@@H]6CCCN6C(=O)[C@H](NC(=O)OC)c6ccccc6)[nH]5)ccc4c3)cc1CC2)C1CCN(C(=O)OC(C)(C)C)CC1 [Example 270] | 0.001 to 0.999 | 0.032 | 0.001 to 0.999 | 0.001 to 0.99 | 0.001 to 0.99 |
| COC(=O)N[C@H](C(=O)N1CCC[C@H]1c1nc2ccc3cc(-c4ccc5cc(-c6cnc([C@@H]7CCCN7C(=O)[C@H](NC(=O)OC)c7ccccc7)[nH]6)ccc5c4)ccc3c2[nH]1)[C@@H](C)OC [Example 271] | 0.001 to 0.999 | 0.008 | 0.001 to 0.999 | 0.001 to 0.99 | 0.001 to 0.99 |
| COC(=O)N[C@H](C(=O)N1CCC[C@H]1c1nc2c([nH]1)-c1ccc(-c3ccc4cc(-c5cnc([C@@H]6CCCN6C(=O)[C@H](NC(=O)CC6CCOCC6)c6ccccc6)[nH]5)ccc4c3)cc1CC2)C(C)C [Example 273] | 0.001 to 0.999 | 0.042 | 0.001 to 0.999 | 0.001 to 0.99 | 0.001 to 0.99 |
| COC(=O)N[C@H](C(=O)N1CCC[C@H]1c1ncc(-c2ccc3c(c2)cc(C#N)c2cc(-c4cnc([C@@H]5CCCN5C(=O)[C@@H](NC(=O)OC)C(C)C)[nH]4)ccc23)[nH]1)C(C)C [Example 274] | 1 to 44 | 0.011 | 1 to 44 | 1 to 4.99 | 0.001 to 0.99 |

— patent US10344019B2 (priority 2010, dated 2019)
